Experimental data from paper PMC11952451 (bioRxiv, 2025).
Entries after “also recorded” stand apart in the source; their conditions may differ. Blank lines part the entries; values can stand above or below the substance they belong to.

Assays:
viability = conditions: some effects on DNA damage response and mutagenesis; cited from earlier work
B. subtilis DnaN = molecular target: T1, B. subtilis DnaN (Bacillus subtilis, UniProt P05649); assay type: binding
T1 sequence (P05649 1-378): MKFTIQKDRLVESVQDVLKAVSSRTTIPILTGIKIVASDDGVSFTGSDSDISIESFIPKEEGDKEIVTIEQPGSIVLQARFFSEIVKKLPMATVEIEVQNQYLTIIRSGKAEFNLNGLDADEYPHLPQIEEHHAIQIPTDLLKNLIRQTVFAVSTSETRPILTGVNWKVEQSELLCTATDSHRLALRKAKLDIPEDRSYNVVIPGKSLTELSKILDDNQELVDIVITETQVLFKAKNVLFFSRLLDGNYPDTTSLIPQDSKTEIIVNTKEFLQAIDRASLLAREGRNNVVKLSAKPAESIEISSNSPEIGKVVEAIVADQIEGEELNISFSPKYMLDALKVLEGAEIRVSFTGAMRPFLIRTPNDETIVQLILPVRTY

E. coli clamp = conditions: cited from earlier work

Substance: ATSMAF [εQ]
effect on viability (viability): no effect on viability

affinity class in words (B. subtilis DnaN): only micromolar affinity
Substance: QLSLF
affinity class in words (E. coli clamp): submicromolar affinity

Substance: FAM-Ahx-DDAMGLALDE-NH2
binding (FP response) (B. subtilis DnaN; pH 7.5): lack of binding; also recorded: deficient in clamp binding in FP assays

Substance: QLSLPL [εL]
effect on viability (viability): no effect on viability
